From article PMC8836905, “Structural and Biochemical Analysis of the Furan Aldehyde Reductase YugJ from Bacillus subtilis” (International Journal of Molecular Sciences, 2022) come the findings set out here.

Test [1] deals with T1, YugJ (Bacillus spizizenii, UniProt Z9GGM4DFS4).
T1 construct: full-length residues 1-387; N-terminal His6 tag removed with thrombin; E. coli BL21(DE3); homodimer
The experiment in a line: X-ray crystal structure. In kind it is binding.

In test [2] the target is T1, YugJ. The experiment in a line: NADPH oxidation at […] nm, HMF reduction. In kind it is biochemical. The note with it: 3 mM HMF, 0.2 mM NADPH, Ni2+-bound YugJ, 50 mM HEPES pH 7.4, 150 mM NaCl, 23 °C; presumed competitive.
Test [3] addresses YugJ from Bacillus subtilis (furan aldehyde reductase) (B. subtilis subsp. spizizenii) (UniProt O05239). The experiment in a line: SEC; gel filtration on Superdex 200 10/300 in 20 mM Tris, pH 8.0, 150 mM NaCl, 5 mM β-mercaptoethanol; eluted between 44 and 158 kDa standards.

Sequence of YugJ from Bacillus subtilis (furan aldehyde reductase) (O05239 whole entry): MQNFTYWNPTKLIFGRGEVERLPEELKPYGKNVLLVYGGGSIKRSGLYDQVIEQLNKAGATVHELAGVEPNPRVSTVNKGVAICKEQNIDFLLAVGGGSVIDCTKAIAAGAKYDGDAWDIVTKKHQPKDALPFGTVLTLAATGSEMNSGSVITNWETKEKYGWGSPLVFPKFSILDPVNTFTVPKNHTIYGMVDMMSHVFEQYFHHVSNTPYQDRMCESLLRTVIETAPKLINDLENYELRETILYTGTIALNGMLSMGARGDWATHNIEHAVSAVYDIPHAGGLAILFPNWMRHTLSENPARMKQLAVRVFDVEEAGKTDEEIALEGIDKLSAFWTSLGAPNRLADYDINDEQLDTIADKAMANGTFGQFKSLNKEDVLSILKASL

Turning to `NC(=O)c1ccc[n+]([C@@H]2O[C@H](COP(=O)(O)OP(=O)(O)OC[C@H]3O[C@@H](n4cnc5c(N)ncnc54)[C@H](OP(=O)(O)O)[C@@H]3O)[C@@H](O)[C@H]2O)c1` [NADP], the X-ray crystal structure entry at YugJ [1] (1.65 Å with nitrate (7W9Z), 1.93 Å with Ni2+, nicotinamide disordered (7W9Y), interdomain cleft) was “we determined the crystal structures of YugJ in complex with NADP in two crystal forms”. As for `O=[N+]([O-])O` [nitrate], the X-ray crystal structure entry on YugJ [1] (1.65 Å, with NADP, 0.3 M ammonium nitrate in crystallisation, pH 6.5, near nicotinamide ring, putative substrate site) is listed as “nitrate ion forms hydrogen bonds with the nicotinamide-linked ribose moiety of NADP”. In addition, on YugJ [2], the “% inhibition at 360 mM lithium nitrate” value is ~ 75%. The molecule “YugJ from Bacillus subtilis (furan aldehyde reductase) (from UniProt O05239 1-387) (enzyme)” returned a stoichiometry N in test [3] of 2.

In general, stoichiometry N refers to the number of molecules, sites or subunits per partner or assembly.
